We go through 1 compound from ChEMBL document CHEMBL3297653, “2-Amino-7-substituted benzoxazole analogs as potent RSK2 inhibitors” (Bioorg Med Chem Lett, 2014).

One assay has as its system MDA-MB-231. As to the kind of experiment: Cytotoxicity against human MDA-MB-231 cells assessed as growth inhibition after 5 days by CellTitre-glo assay. It is filed as functional, cell-based. The following applies: MDA-MB-231, 120 h.
For assay [1], the target named is Tyrosine-protein kinase JAK2 (Homo sapiens, UniProt O60674). The experiment in a line: Inhibition of JAK2 (unknown origin).
Sequence of Tyrosine-protein kinase JAK2 (O60674 whole entry): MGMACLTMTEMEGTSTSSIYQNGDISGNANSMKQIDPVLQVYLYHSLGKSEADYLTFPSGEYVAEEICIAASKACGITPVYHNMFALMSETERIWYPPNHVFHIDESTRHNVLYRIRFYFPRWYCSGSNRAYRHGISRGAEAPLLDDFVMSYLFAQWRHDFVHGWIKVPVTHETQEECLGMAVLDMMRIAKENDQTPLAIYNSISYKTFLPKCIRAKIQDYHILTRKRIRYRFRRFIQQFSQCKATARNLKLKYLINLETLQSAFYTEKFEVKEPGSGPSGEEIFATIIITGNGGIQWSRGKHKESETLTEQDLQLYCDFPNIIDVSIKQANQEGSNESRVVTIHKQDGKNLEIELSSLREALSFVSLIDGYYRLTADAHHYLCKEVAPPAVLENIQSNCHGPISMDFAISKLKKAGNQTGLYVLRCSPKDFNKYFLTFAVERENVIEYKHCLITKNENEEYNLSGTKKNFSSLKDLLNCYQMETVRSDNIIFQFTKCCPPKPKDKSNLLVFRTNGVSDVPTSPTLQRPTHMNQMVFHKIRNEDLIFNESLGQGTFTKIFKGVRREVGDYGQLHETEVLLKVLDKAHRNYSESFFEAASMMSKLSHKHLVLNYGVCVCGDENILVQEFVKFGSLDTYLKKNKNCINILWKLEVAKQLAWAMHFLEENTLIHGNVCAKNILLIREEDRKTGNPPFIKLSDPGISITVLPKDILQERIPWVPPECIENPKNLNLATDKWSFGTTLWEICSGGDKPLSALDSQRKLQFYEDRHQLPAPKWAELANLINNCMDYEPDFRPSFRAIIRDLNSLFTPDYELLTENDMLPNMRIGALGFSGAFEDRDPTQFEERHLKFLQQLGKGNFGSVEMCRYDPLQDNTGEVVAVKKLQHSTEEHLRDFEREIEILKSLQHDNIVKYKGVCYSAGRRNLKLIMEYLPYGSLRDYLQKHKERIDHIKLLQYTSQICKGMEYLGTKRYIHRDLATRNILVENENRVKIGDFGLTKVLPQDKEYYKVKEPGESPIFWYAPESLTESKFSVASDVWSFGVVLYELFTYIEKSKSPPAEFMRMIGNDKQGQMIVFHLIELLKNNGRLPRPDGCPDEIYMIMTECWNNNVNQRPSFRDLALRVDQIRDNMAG
The target of another assay is T1, Aurora kinase A (Homo sapiens, UniProt O14965).
T1 sequence (O14965 whole entry): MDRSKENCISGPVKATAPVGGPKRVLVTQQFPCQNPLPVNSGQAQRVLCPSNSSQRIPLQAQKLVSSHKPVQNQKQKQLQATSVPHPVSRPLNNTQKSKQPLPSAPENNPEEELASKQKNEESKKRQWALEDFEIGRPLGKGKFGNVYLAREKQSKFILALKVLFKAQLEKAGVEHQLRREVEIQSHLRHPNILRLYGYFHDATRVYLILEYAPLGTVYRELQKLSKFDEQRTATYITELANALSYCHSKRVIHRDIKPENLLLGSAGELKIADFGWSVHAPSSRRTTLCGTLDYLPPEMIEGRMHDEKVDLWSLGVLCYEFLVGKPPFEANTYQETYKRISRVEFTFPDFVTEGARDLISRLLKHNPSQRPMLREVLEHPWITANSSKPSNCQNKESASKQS
The experiment in a line: Inhibition of aurora A (unknown origin).

As usually defined, the EC50 is the concentration needed to bring the measured effect to its halfway point. As a reminder, the IC50 is the concentration that gives 50% inhibition. On to `COc1cc(Nc2nc3cccc(-c4cccc5[nH]cnc45)c3o2)cc(OC)c1OC`, for which the EC50 in the assay on MDA-MB-231 worked out at 580 nM. In addition, the 50% inhibitory concentration (IC50) in assay [1] is 460 nM; at Aurora kinase A it was 600 nM.
